Experimental data as given in US20120128654A1, “Allantoin Administration for the Treatment of Neurodegenerative Disease and Neurotrauma” (UNIVERSITY OF CINCINNATI, priority 2009, published 2012).
Entries after “also recorded” stand apart in the source; their conditions may differ.

What was measured:
[1] = Plasma purine levels following subcutaneous purine and KO pellet administration; type: in vivo, Sprague Dawley rats; settings: rats, four days following pellet implantation; for plasma allantoin levels: matrix-driven s.c. pellets, vs control
Description: (§1) Continuous s.c. delivery of INO, KO and ALL was achieved by implanting matrix-driven pellets into the s.c. space. Animals were anesthetized with isofluorane and prepared for surgery using sterile procedures. A small incision was made posterior to the scapula and the pellet was placed in the subscapular space contralateral to the incision. This placement technique prevents migration of the pellet towards the incision, thereby reducing the incidents of rejection. Finally, the incision was closed using aseptic procedures. To determine the roles of UA and allantoin in inosine-mediated neuroprotection, animals were treated with the urate oxidase inhibitor KO. This approach has been widely used to prevent the enzymatic metabolism of UA to allantoin in other rodent models of disease.
For HPLC analysis of plasma inosine, hypoxanthine, xanthine and UA, an antioxidant solution was added to an equal volume of plasma and samples were centrifuged at 14,000 g for 20 minutes at 4° C. The supernatant was collected for HPLC analysis. Samples were separated on a Hypersil ODS column (Thermo-Fisher Scientific, Waltham, Mass.). Compounds were detected using a Photodiode Array Detector attached to a Waters 2695 Solvent Delivery System under the following conditions: the mobile phase consisted of 0.5% KH2PO4 at a pH of 4.6. Unknown samples were quantified against a 6-point standard curve with a minimum r^2 of 0.97. Quality control samples were interspersed with each run to ensure HPLC calibration. Data are expressed in μg/ml.
For plasma analysis of allantoin venous blood was obtained from the right ventricle (rat) and collected from repeated blood draws (African green monkey). Blood was immediately centrifuged at 10,500 rpms (this needs to be in G) for 5 minutes. Supernatant was then removed and analyzed for allantoin. Enzymatic detection of allantoin was performed as previously described with the exception of reaction volumes being adjusted to accommodate the use of a 96 well microtiter plate (Muratsubaki et al., Enzymatic assay of allantoin in serum using allantoinase and allantoate amidohydrolase, Anal. Biochem. 359:161-166 (2006)). […] Following a 15 minute incubation, absorbance was read on a spectrometer at 340 nm. […] Following a 10 minute incubation absorbance was once again measured at 340 nm. The final absorbance was subtracted from the absorbance following the addition of allantoinase. […]
To determine the impact of peripheral administration of purines on plasma purine levels, animals were divided into 5 groups INO (n=12), INO/KO (n=12), ALL (n=12), KO (n=12), and sham pellet implantation. […] Plasma ALL levels were determined enzymatically.

[2] = system: 6-OHDA induced forelimb akinesia; test: Cylinder testing for forelimb akinesia after intrastriatal 6-OHDA; type: in vivo, Sprague Dawley rats; settings: cylinder test, s.c. pellets implanted 3 days prior to intrastriatal 6-OHDA, four and six weeks post lesion, vs control
Description: as §1
Rats were anesthetized prior to surgery with Equi-Thesin (0.3 ml/100 g body weight i.p.; chloral hydrate 42.5 mg/ml+sodium pentobarbital 9.72 mg/ml), their heads shaved, and then they were placed in a stereotaxic frame. Their skin was swabbed with Betadyne followed by 70% ETOH. The scalp was then opened to expose the skull. Two 1 mm holes were drilled into the skull and rats were injected in two sites in the striatum with 6-OHDA (MP Biomedicals, Solon, Ohio; 5 μg/μl 6-OHDA in 0.2% ascorbic acid, 0.9% saline solution). […]
Non-drugged, spontaneous use of the forepaws was measured in rats as described by Schallert (Schallert, T., Behavioral tests for preclinical intervention assessment, NeuroRx 3:497-504 (2006)) prior to pellet and intrastriatal 6-OHDA and at both four weeks and six weeks after 6-OHDA. […] Videotapes were analyzed by a rater blinded to treatment. The number of times the rat used its left, right, or both paws for weight bearing in a given trial was determined and noted. […]
In the first experiment, rats were divided into four different groups INO (n=6), INO/potassium oxonate (KO blocks conversion of UA to ALL) (n=6), ALL (n=6), and sham pellet implantation. […] In experiment 1, rats were assessed for forelimb akinesia prior to, and […] and 6 weeks after intrastriatal 6-OHDA infusion. […]

Compound | plasma allantoin levels [1] | plasma allantoin levels ([1]; listed as Allantoin) | forelimb akinesia [2] | plasma levels of any other purines ([1]; s.c. pellets) | forelimb akinesia ([2]; listed as Inosine)
NC(=O)NC1NC(=O)NC1=O (stereo not shown) [allantoin] | increase in plasma allantoin similar to what was seen in the inosine only group | significantly increased | reduced at four and six weeks post-lesion; also recorded: significantly attenuated | – | –
OC[C@H]1O[C@@H](n2cnc3c(O)ncnc32)[C@H](O)[C@@H]1O [inosine] | significantly increased | – | significantly attenuated | without affecting | significantly ameliorated forelimb akinesia six weeks post lesion
